{"source": "patent US9187458B2", "about": "“Cyanoquinoline derivatives” (Tianjin Hemay Bio-Tech Co., LTD., priority 2010, dated 2015)", "key": {"[1]": {"system": "NCI-H358 cells", "test": "NCI-H358 Cell Growth Inhibition Test (MTT Assay)", "assay_type": "cell-based", "conditions": "Homo sapiens, 72 h incubation", "experimental": "NCI-H358 Cell Growth Inhibition Test (MTT Assay)\nCell strains: NCI-H358 (human non-small cell lung cancer cell strains);\n(§1) 1. A plate (10 cm) of cells in logarithmic growth phase normally cultured was collected;\n2. The culture solution was sucked out. The plate was washed with 5 ml of PBS 1-2 times;\n3. PBS was sucked out. 1.5 ml of 0.25% pancreatin was added to infiltrate the cells for 1 min;\n4. The culture plate was placed in an incubator. Digestion was carried out for about 5 min at 37° C.;\n5. 3 ml of complete culture solution was added to the culture plate to stop the digestion. Tthe cells were carefully scoured with micropipette (1 ml) to give a uniform cell suspension. The suspension was implanted into a 96-well cell culture plate by 10000 cells/100 […] per well. The culture plate was incubated overnight under 5% CO2 at 37° C. In day 2, 100 μA of culture solution comprising a compound was added in each well, and further incubated for 72 h under 5% CO2 at 37° C.\n6. The culture solution was sucked out;\n7. 100 μA of serum-free culture solution containing 0.5 mg/ml MTT was added in each well, and incubated for 3 h;\n8. The culture solution was carefully sucked out;\n9. 100 μA of DMSO was added in each well and vibrated to dissolve;\n10. OD values were determined at 490 nM.\n1. Calculation of Relative Inhibition Ratio The inhibition ratio of a compound on cell growth=(PC−n)/(PC−NC)×100%\nIC50: Concentration of a compound where inhibition ratio was 50%. IC50 values were fitted with Origin7.5."}, "[2]": {"system": "MDA-MB-453 cells", "test": "MDA-MB-453 Cell Growth Inhibition Test (SRB Assay)", "assay_type": "cell-based", "conditions": "Homo sapiens, 72 h incubation", "experimental": "MDA-MB-453 Cell Growth Inhibition Test (SRB Assay)\nCell strains: MDA-MB-453 (human breast cancer cell strains);\nSRB: 0.4% (w/v) working solution was formulated with 1% glacial acetic acid, reserved at 4° C.; antitumor compounds; DMSO\nCulture medium: 90% L15+10% FBS;\nas §1\n2. The culture solution was sucked out. The plate was washed with 5 mL of PBS 1-2 times;\n3. 1.5 mL of 0.25% pancreatin was added to the plate to infiltrate the cells;\n4. The pancreatin was sucked out. The culture plate was placed in an incubator. Digestion was carried out for about 3 min at 37° C.;\n5. 4 mL of complete culture solution was added to the culture plate to stop the digestion. The cells were carefully scoured with micropipette (1 ml) to give a uniform single cell suspension. The suspension was implanted into a 96-well cell culture plate by 7000 cells/100 μl per well. The culture plate was incubated overnight under 5% CO2 at 37° C. In day 2, 100 μl of culture solution comprising a compound was added in each well, and further incubated for 72 h under 5% CO2 at 37° C.;\n6. The culture solution was sucked out. 100 uL of TCA fixed cells which were diluted to 10% were added to each well. The plate was kept in a refrigerator for 1 h at 4° C.\n7. TCA stationary liquid was sucked out. […]\n13. OD values were determined at […]. […]"}}, "note": "pIC50: −log10 of the molar value.", "data": [{"compound": "CC(C)(C)NC/C=C/C(=O)Nc1cc2c(Nc3ccc(OCc4ccccn4)c(Cl)c3)c(C#N)cnc2cc1O[C@H]1CCOC1", "note": "[Example 153, (S,E)-N-(4-(3-CHLORO-4-(PYRIDIN-2-YL-METHOXY)PHENYLAMINO)-3-CYANO-7-(TETRAHYDROFURAN-3-YL-OXY)QUINOLIN-6-YL)-4-(TERT-BUTYLAMINO)-BUT-2-ENAMIDE]", "values": [{"measurement": "pIC50", "setting": "[1]", "result": 7.11}]}, {"compound": "CN(C)C/C=C/C(=O)Nc1cc2c(Nc3ccc(OCc4ccccn4)c(Cl)c3)c(C#N)cnc2cc1O[C@H]1CCOC1", "note": "[Example 138, (S,E)-N-(4-(3-CHLORO-4-(PYRIDIN-2-YL-METHOXY)PHENYLAMINO)-3-CYANO-7-(TETRAHYDROFURAN-3-YL-OXY)QUINOLIN-6-YL)-4-(DIMETHYLAMINO)-BUT-2-ENAMIDE]", "values": [{"measurement": "pIC50", "setting": "[1]", "result": 7.27}]}, {"compound": "C#Cc1cccc(Nc2c(C#N)cnc3cc(OC4CCOC4)c(NC(=O)/C=C/CN(C)C)cc23)c1", "note": "(stereo not drawn) [Example 5, (E)-N-(3-CYANO-4-(3-ETHYNYLPHENYLAMINO)-7-(TETRAHYDROFURAN-3-YL-OXY)QUINOLIN-6-YL)-4-(DIMETHYLAMINO)-BUT-2-ENAMIDE]", "values": [{"measurement": "pIC50", "setting": "[2]", "result": 6.30}]}]}
